# What was measured:
# sirtuin 1 gene = test: Sirtuin 1 gene expression-promoting effect (2); format: cell-based; details: normal human epidermal keratinocytes, 0.001 wt %, 33 hours, medium without hydrocortisone; control = 100%
# Protocol: Normal human epidermal keratinocytes were seeded into 12-well culture plates at 5×10^4 cells per well. As the medium, EpiLife KG-2 medium supplemented with insulin, hEGF, hydrocortisone, anti-microbial agents, and BPE was used (basal medium), and the cells were preincubated in 5% CO2 at 37° C. for 48 hours. The medium was removed, and then replaced with a sample medium obtained by removing hydrocortisone from the above-described basal medium, and by supplementing the resulting medium with resveratrol 3-O-α-glucoside to a concentration of 0.001 wt %, and the cells were cultured in 5% CO2 at 37° C. For comparison, the cells were cultured under the same conditions as described above, except that resveratrol 3-O-α-glucoside in the sample medium was replaced by resveratrol 3-O-β-glucoside. After 33 hours of culture, total RNA was extracted from the cells, and the level of expression of the sirtuin 1 gene was quantified by real time PCR. As a control group, cells were cultured without resveratrol 3-O-α-glucoside or resveratrol 3-O-β-glucoside, and total RNA collected from these cells was used. Taking as 100% the level of expression of the sirtuin 1 gene for the control group, a relative ratio of the expression level of the sirtuin 1 gene for the resveratrol 3-O-α-glucoside- or resveratrol 3-O-β-glucoside-supplemented group (SIRT 1 gene expression ratio, %) was determined. […]
# [1] = test system: matrix metalloproteinase 9 (MMP9) gene; test: MMP9 gene expression in the epidermis (three-dimensional human skin model); format: cell-based; details: 100 μL, 8 hours, distilled water control = 100%
# Protocol: Using a three-dimensional human skin model, the effect of resveratrol 3-O-α-glucoside on the matrix metalloproteinase 9 (MMP9) gene expression in the epidermis was investigated.
# An aqueous solution containing resveratrol 3-O-α-glucoside at a concentration of 0.02 or 0.1 wt %, or containing resveratrol 3-O-β-glucoside at a concentration of 0.02 wt % was prepared, and the resulting solution was used as a sample solution. One-hundred microliters of the sample solution were administered to the horny layer side of the human skin model (EpiDerm EPI-200; MatTek), and cultured in 5 mL of a special medium (EPI-100-ASY) at 37° C. for 8 hours. After the culture, total RNA was extracted from the skin model, and the level of expression of the MMP9 gene was quantified by real time PCR. As a control group, distilled water was administered to a skin model instead of the sample solution, and total RNA collected from the skin model was used.
# Taking as 100% the level of expression of the MMP9 gene for the control group, a relative ratio of the expression level of the MMP9 gene for the resveratrol 3-O-α-glucoside- or resveratrol 3-O-β-glucoside-supplemented group (MMP9 gene expression ratio, %) was determined. In the measurement of the expression level of the MMP9 gene, PPIA was used for internal standard correction.
# [2] = Solubility in solvent containing ethanol; format: physicochemical
# Protocol: (§1) Approximately 40 mg each of resveratrol 3-O-α-glucoside, resveratrol (Tokyo Chemical Industry Co., Ltd.), and resveratrol 3-O-β-glucoside (Tokyo Chemical Industry Co., Ltd.) was weighed, approximately 70 mg of a solvent (whose composition is shown in Table 18) containing ethanol (Wako Pure Chemical Industries, Ltd.) was added thereto, and the mixture was soaked in a water bath at 25° C. under light-tight conditions, and incubated for 15 hours with occasional stirring. After 15 hours, each of the samples was filtered through a 0.45 μm centrifugal filter, and then the concentration of each of the components in the filtrate was analyzed using HPLC under the same conditions as those described in Production Example 1 above. The dissolved concentration (w/v %) at 25° C. was thus determined.
# [3] = Solubility in solvent containing glycerol; format: physicochemical
# Protocol: as §1
# The solubility of resveratrol 3-O-α-glucoside was evaluated under the same conditions as those described in Example 18 above, except that a solvent (whose composition is shown in Table 19) containing glycerol (Wako Pure Chemical Industries, Ltd.) was used.
# [4] = Solubility in solvent containing propylene glycol; format: physicochemical
# Protocol: as §1
# The solubility of resveratrol 3-O-α-glucoside was evaluated under the same conditions as those described in Example 18 above, except that a solvent (whose composition is shown in Table 20) containing propylene glycol (Wako Pure Chemical Industries, Ltd.) was used.
# [5] = Solubility in solvent containing 1,3-butylene glycol; format: physicochemical
# Protocol: as §1
# The solubility of resveratrol 3-O-α-glucoside was evaluated under the same conditions as those described in Example 18 above, except that a solvent (whose composition is shown in Table 21) containing 1,3-butylene glycol (Wako Pure Chemical Industries, Ltd.) was used.
# [6] = Solubility in solvent containing dipropylene glycol; format: physicochemical
# Protocol: as §1
# The solubility of resveratrol 3-O-α-glucoside was evaluated under the same conditions as those described in Example 18 above, except that a solvent (whose composition is shown in Table 22) containing dipropylene glycol (Asahi Glass Co., Ltd.) was used.
# [7] = EpiDerm EPI-200, 0.02 wt % aqueous solution
structure (smiles),measurement,setting,value
"OC[C@H]1O[C@H](Oc2cc(O)cc(C=Cc3ccc(O)cc3)c2)[C@H](O)[C@@H](O)[C@@H]1O [Resveratrol 3-O-α-Glucoside, resveratrol 3-O-α-glucoside]",SIRT 1 Gene Expression Ratio (%),sirtuin 1 gene,141%
same,MMP9 Gene Expression Ratio (%),[1]; [7],85%
same,MMP9 Gene Expression Ratio (%),"[1]; EpiDerm EPI-200, 0.1 wt % aqueous solution",66%
same,dissolved concentration,[2],exceeded 30 w/v %
same,Dissolved Concentration (w/v %) at 25° C.,[2]; 15 h,0.3 w/v %
same,dissolved concentration,[3],exceeded 20 w/v %
same,dissolved concentration,[4],exceeded 30 w/v %
same,Dissolved Concentration (w/v %) at 25° C.,[4]; 15 h,0.3 w/v %
same,dissolved concentration,[5],exceeded 20 w/v %
same,dissolved concentration,[6],exceeded 30 w/v %
"OC[C@H]1O[C@@H](Oc2cc(O)cc(/C=C/c3ccc(O)cc3)c2)[C@H](O)[C@@H](O)[C@@H]1O [Resveratrol 3-O-β-Glucoside, resveratrol 3-O-β-glucoside]",SIRT 1 Gene Expression Ratio (%),sirtuin 1 gene,120%
same,MMP9 Gene Expression Ratio (%),[1]; [7],124%
same,Dissolved Concentration (w/v %) at 25° C.,"[2]; Ethanol:Water 0:100 (weight ratio), 15 hours",0.04 w/v %
same,Dissolved Concentration (w/v %) at 25° C.,"[2]; Ethanol:Water 5:95 (weight ratio), 15 hours",0.05 w/v %
same,Dissolved Concentration (w/v %) at 25° C.,"[2]; Ethanol:Water 10:90 (weight ratio), 15 hours",0.06 w/v %
same,Dissolved Concentration (w/v %) at 25° C.,"[2]; Ethanol:Water 15:85 (weight ratio), 15 hours",0.1 w/v %
same,Dissolved Concentration (w/v %) at 25° C.,"[2]; Ethanol:Water 20:80 (weight ratio), 15 hours",0.2 w/v %
same,Dissolved Concentration (w/v %) at 25° C.,"[2]; Ethanol:Water 25:75 (weight ratio), 15 hours",0.4 w/v %
same,Dissolved Concentration (w/v %) at 25° C.,"[2]; Ethanol:Water 30:70 (weight ratio), 15 hours",0.7 w/v %
same,Dissolved Concentration (w/v %) at 25° C.,"[2]; Ethanol:Water 40:60 (weight ratio), 15 hours",2.6 w/v %
same,Dissolved Concentration (w/v %) at 25° C.,"[2]; Ethanol:Water 50:50 (weight ratio), 15 hours",5.3 w/v %
same,Dissolved Concentration (w/v %) at 25° C.,"[2]; Ethanol:Water 75:25 (weight ratio), 15 hours",13.8 w/v %
same,Dissolved Concentration (w/v %) at 25° C.,"[2]; Ethanol:Water 90:10 (weight ratio), 15 hours",7.3 w/v %
same,Dissolved Concentration (w/v %) at 25° C.,"[2]; Ethanol:Water 100:0 (weight ratio), 15 hours",2.4 w/v %
same,Dissolved Concentration (w/v %) at 25° C.,[3]; Glycerol:Water 0:100 (weight ratio),0.04 w/v %
same,Dissolved Concentration (w/v %) at 25° C.,[3]; Glycerol:Water 10:90 (weight ratio),0.05 w/v %
same,Dissolved Concentration (w/v %) at 25° C.,[3]; Glycerol:Water 25:75 (weight ratio),0.09 w/v %
same,Dissolved Concentration (w/v %) at 25° C.,[3]; Glycerol:Water 50:50 (weight ratio),0.3 w/v %
same,Dissolved Concentration (w/v %) at 25° C.,[3]; Glycerol:Water 75:25 (weight ratio),1.1 w/v %
same,Dissolved Concentration (w/v %) at 25° C.,[3]; Glycerol:Water 90:10 (weight ratio),1.9 w/v %
same,Dissolved Concentration (w/v %) at 25° C.,[3]; Glycerol:Water 100:0 (weight ratio),3.1 w/v %
same,Dissolved Concentration (w/v %) at 25° C.,[4]; Propylene Glycol:Water 0:100 (weight ratio),0.04 w/v %
same,Dissolved Concentration (w/v %) at 25° C.,[4]; Propylene Glycol:Water 5:95 (weight ratio),0.04 w/v %
same,Dissolved Concentration (w/v %) at 25° C.,[4]; Propylene Glycol:Water 10:90 (weight ratio),0.06 w/v %
same,Dissolved Concentration (w/v %) at 25° C.,[4]; Propylene Glycol:Water 15:85 (weight ratio),0.09 w/v %
same,Dissolved Concentration (w/v %) at 25° C.,[4]; Propylene Glycol:Water 20:80 (weight ratio),0.1 w/v %
same,Dissolved Concentration (w/v %) at 25° C.,[4]; Propylene Glycol:Water 25:75 (weight ratio),0.2 w/v %
same,Dissolved Concentration (w/v %) at 25° C.,[4]; Propylene Glycol:Water 50:50 (weight ratio),3.3 w/v %
same,Dissolved Concentration (w/v %) at 25° C.,[4]; Propylene Glycol:Water 75:25 (weight ratio),11.5 w/v %
same,Dissolved Concentration (w/v %) at 25° C.,[4]; Propylene Glycol:Water 90:10 (weight ratio),12.5 w/v %
same,Dissolved Concentration (w/v %) at 25° C.,[4]; Propylene Glycol:Water 100:0 (weight ratio),11.3 w/v %
same,Dissolved Concentration (w/v %) at 25° C.,"[5]; 1,3-Butylene Glycol:Water 0:100 (weight ratio)",0.04 w/v %
same,Dissolved Concentration (w/v %) at 25° C.,"[5]; 1,3-Butylene Glycol:Water 5:95 (weight ratio)",0.04 w/v %
same,Dissolved Concentration (w/v %) at 25° C.,"[5]; 1,3-Butylene Glycol:Water 10:90 (weight ratio)",0.07 w/v %
same,Dissolved Concentration (w/v %) at 25° C.,"[5]; 1,3-Butylene Glycol:Water 15:85 (weight ratio)",0.1 w/v %
same,Dissolved Concentration (w/v %) at 25° C.,"[5]; 1,3-Butylene Glycol:Water 20:80 (weight ratio)",0.2 w/v %
same,Dissolved Concentration (w/v %) at 25° C.,"[5]; 1,3-Butylene Glycol:Water 25:75 (weight ratio)",0.3 w/v %
same,Dissolved Concentration (w/v %) at 25° C.,"[5]; 1,3-Butylene Glycol:Water 50:50 (weight ratio)",2.8 w/v %
same,Dissolved Concentration (w/v %) at 25° C.,"[5]; 1,3-Butylene Glycol:Water 75:25 (weight ratio)",7.5 w/v %
same,Dissolved Concentration (w/v %) at 25° C.,"[5]; 1,3-Butylene Glycol:Water 90:10 (weight ratio)",9.7 w/v %
same,Dissolved Concentration (w/v %) at 25° C.,"[5]; 1,3-Butylene Glycol:Water 100:0 (weight ratio)",7.2 w/v %
same,Dissolved Concentration (w/v %) at 25° C.,[6]; Dipropylene Glycol:Water 0:100 (weight ratio),0.04 w/v %
same,Dissolved Concentration (w/v %) at 25° C.,[6]; Dipropylene Glycol:Water 5:95 (weight ratio),0.06 w/v %
same,Dissolved Concentration (w/v %) at 25° C.,[6]; Dipropylene Glycol:Water 10:90 (weight ratio),0.1 w/v %
same,Dissolved Concentration (w/v %) at 25° C.,[6]; Dipropylene Glycol:Water 15:85 (weight ratio),0.3 w/v %
same,Dissolved Concentration (w/v %) at 25° C.,[6]; Dipropylene Glycol:Water 20:80 (weight ratio),0.5 w/v %
same,Dissolved Concentration (w/v %) at 25° C.,[6]; Dipropylene Glycol:Water 25:75 (weight ratio),0.9 w/v %
same,Dissolved Concentration (w/v %) at 25° C.,[6]; Dipropylene Glycol:Water 50:50 (weight ratio),11.5 w/v %
same,Dissolved Concentration (w/v %) at 25° C.,[6]; Dipropylene Glycol:Water 75:25 (weight ratio),26.1 w/v %
same,Dissolved Concentration (w/v %) at 25° C.,[6]; Dipropylene Glycol:Water 90:10 (weight ratio),23.9 w/v %
same,Dissolved Concentration (w/v %) at 25° C.,[6]; Dipropylene Glycol:Water 100:0 (weight ratio),15.0 w/v %

# Reference: US10149809B2, “Skin aging inhibitor and concentrate of resveratrol 3-O-α-glucoside” (priority 2014, dated 2018)
